Test results from patent US20250382303A1, “NOVEL COMPOUND AS NADPH OXIDASE 2 INHIBITOR AND PHARMACEUTICAL COMPOSITION CONTAINING SAME” (DONGGUK UNIVERSITY INDUSTRY-ACADEMIC COOPERATION FOUNDATION, priority 2022, published 2025).

Molecular target: T1, NOX2 (Homo sapiens, UniProt P04839)
T1 construct: Used for the NOX2 activity assay was human leukemia 60 cells (HL-60), which are widely, universally used to assess NOX2 activity; endogenous in cells
T1 sequence (P04839 2-570 limits assumed): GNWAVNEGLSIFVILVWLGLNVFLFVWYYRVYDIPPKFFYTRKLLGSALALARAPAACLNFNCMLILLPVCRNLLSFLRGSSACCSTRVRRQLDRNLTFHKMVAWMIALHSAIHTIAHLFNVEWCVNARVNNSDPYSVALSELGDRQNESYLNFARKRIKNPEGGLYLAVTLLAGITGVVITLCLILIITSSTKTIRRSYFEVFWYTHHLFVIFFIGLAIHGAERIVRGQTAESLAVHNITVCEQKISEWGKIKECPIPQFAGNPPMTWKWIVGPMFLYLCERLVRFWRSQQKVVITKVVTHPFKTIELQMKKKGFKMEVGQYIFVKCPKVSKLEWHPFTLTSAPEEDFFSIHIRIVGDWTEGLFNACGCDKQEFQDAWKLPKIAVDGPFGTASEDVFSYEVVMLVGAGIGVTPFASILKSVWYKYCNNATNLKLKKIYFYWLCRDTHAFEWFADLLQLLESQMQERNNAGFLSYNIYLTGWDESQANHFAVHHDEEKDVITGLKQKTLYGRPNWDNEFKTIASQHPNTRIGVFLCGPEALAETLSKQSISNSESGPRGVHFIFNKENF
T1 sequence (P13498 2-195 partner limits assumed): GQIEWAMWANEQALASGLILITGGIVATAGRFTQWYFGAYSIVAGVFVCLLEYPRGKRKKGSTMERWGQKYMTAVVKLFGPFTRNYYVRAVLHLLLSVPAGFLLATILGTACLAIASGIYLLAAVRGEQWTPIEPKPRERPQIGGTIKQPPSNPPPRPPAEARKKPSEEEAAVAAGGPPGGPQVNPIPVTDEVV
Assay: NOX2 activity assay: PMA-induced ROS in ATRA-differentiated HL-60 cells (WST-1 or Amplex Red/HRP probe)
Type: cell-based
Conditions: for IC50: WST-1 probe, differentiated HL-60, 200 ng/mL PMA, read-out: Inhibitory ability (NOX2); for concentration dependence of NOX2 inhibition: FIG. 1; for NOX2 inhibitory ability, verbal rating: WST-1, comment on Table 1
Description: NOX activity was evaluated by measuring the reactive oxygen species (ROS) produced by NOX. The probes that were used to measure ROS were water soluble tetrazolium-1 (WST-1, superoxide-specific colorimetric probe) and Amplex Red/horseradish peroxidase (AR/HRP, hydrogen peroxide-specific fluorometric probe), and the concentration of the probes used was […]. For WST-1, the change in the absorbance at 450 nm was measured, and, for AR, the change in fluorescence signals was measured at 560 nm and 585 nm, respectively for excitation wavelength (Ex) and emission wavelength (Em). The optical signal was measured using the SpectraMax M3 microplate reader from Molecular Devices at 37° C. for 60 minutes.
Used for the NOX2 activity assay was human leukemia 60 cells (HL-60), which are widely, universally used to assess NOX2 activity. 1×10^5 cells/mL of HL-60 were treated with […] all-trans-retinoic acid (ATRA) for 4 days to induce differentiation. Differentiated HL-60 (diff. HL-60) was centrifuged at 200 g for 5 minutes and washed twice with HBSS. Differentiation was induced to reach 3×10^4 cells/well on a 96-well plate (diff). HL-60 was seeded. The test material was treated to cells and left in a 37° C. incubator for 60 minutes. As a control group, the same concentration of DMSO, which is the vehicle of the test material, was used. 200 ng/mL phorbol 12-myristate 13-acetate (PMA) was used as the NOX2 activator, and the production amount of ROS induced by PMA was measured for 60 minutes. […] diphenyleneiodonium (DPI), which is well known to inhibit NOX, was used as a positive control group to evaluate whether the NOX2 activity tester properly operates.

| IC50 | NOX2 inhibitory ability, verbal rating | SMILES | concentration dependence of NOX2 inhibition |
| --- | --- | --- | --- |
| > 10 µM | – | COc1cccc2c1OC1(C)CC2NC(=O)N1c1cccc(C(=O)N2CCc3ccccc3C2)c1 (stereo not drawn) [Compound 25g, 10-Methoxy-2-methyl-3-(3-(1,2,3,4-tetrahydroisoquinoline-2-carbonyl)phenyl)-5,6-dihydro-2H-2,6-methanobenzo[g][1,3,5]oxadiazocin-4(3H)-one] | – |
| 1 to 10 µM | – | CC12CC(NC(=O)N1c1cccc(C(=O)N3CCc4ccccc4C3)c1)c1ccc(Br)cc1O2 (stereo not drawn) [Compound 25h, 9-Bromo-2-methyl-3-(3-(1,2,3,4-tetrahydroisoquinoline-2-carbonyl)phenyl)-5,6-dihydro-2H-2,6-methanobenzo[g][1,3,5]oxadiazocin-4(3H)-one] | – |
| 1 to 10 µM | – | CC12CC(NC(=O)N1c1cccc(C(=O)N3CCc4ccccc4C3)c1)c1ccc(C(F)(F)F)cc1O2 (stereo not drawn) [Compound 25i, 2-Methyl-3-(3-(1,2,3,4-tetrahydroisoquinoline-2-carbonyl)phenyl)-9-(trifluoromethyl)-5,6-dihydro-2H-2,6-methanobenzo[g][1,3,5]oxadiazocin-4(3H)-one] | – |
| 1 to 10 µM | – | CC12CC(NC(=O)N1c1cccc(C(=O)N3CCc4ccccc4C3)c1)c1ccc(Cl)cc1O2 (stereo not drawn) [Compound 25j, 9-Chloro-2-methyl-3-(3-(1,2,3,4-tetrahydroisoquinoline-2-carbonyl)phenyl)-5,6-dihydro-2H-2,6-methanobenzo[g][1,3,5]oxadiazocin-4(3H)-one] | – |
| > 10 µM | – | CC12CC(NC(=O)N1c1cccc(C(=O)N3CCc4ccccc4C3)c1)c1ccc(F)cc1O2 (stereo not drawn) [Compound 25k, 9-Fluoro-2-methyl-3-(3-(1,2,3,4-tetrahydroisoquinoline-2-carbonyl)phenyl)-5,6-dihydro-2H-2,6-methanobenzo[g][1,3,5]oxadiazocin-4(3H)-one] | – |
| > 10 µM | – | COc1ccc2c(c1)OC1(C)CC2NC(=O)N1c1cccc(C(=O)N2CCc3ccccc3C2)c1 (stereo not drawn) [Compound 25l, 9-Methoxy-2-methyl-3-(3-(1,2,3,4-tetrahydroisoquinoline-2-carbonyl)phenyl)-5,6-dihydro-2H-2,6-methanobenzo[g][1,3,5]oxadiazocin-4(3H)-one] | – |
| 1 to 10 µM | – | CC12CC(NC(=O)N1c1cccc(C(=O)N3CCc4ccccc4C3)c1)c1c(F)cccc1O2 (stereo not drawn) [Compound 25m, 7-Fluoro-2-methyl-3-(3-(1,2,3,4-tetrahydroisoquinoline-2-carbonyl)phenyl)-5,6-dihydro-2H-2,6-methanobenzo[g][1,3,5]oxadiazocin-4(3H)-one] | – |
| < 1 µM | excellent inhibitory ability | CC12CC(NC(=O)N1c1cccc(C(=O)N3CCc4ccccc4C3)c1)c1cc(-c3ccsc3)ccc1O2 (stereo not drawn) [Compound 26a, 2-Methyl-3-(3-(1,2,3,4-tetrahydroisoquinoline-2-carbonyl)phenyl)-8-(thiophen-3-yl)-5,6-dihydro-2H-2,6-methanobenzo[g][1,3,5]oxadiazocin-4(3H)-one] | inhibited NOX2 activity in a concentration-dependent manner |
| < 1 µM | excellent inhibitory ability | CC12CC(NC(=O)N1c1cccc(C(=O)N3CCc4ccccc4C3)c1)c1cc(-c3ccoc3)ccc1O2 (stereo not drawn) [Compound 26b, 8-(Furan-3-yl)-2-methyl-3-(3-(1,2,3,4-tetrahydroisoquinoline-2-carbonyl)phenyl)-5,6-dihydro-2H-2,6-methanobenzo[g][1,3,5]oxadiazocin-4(3H)-one] | inhibited NOX2 activity in a concentration-dependent manner |
| > 10 µM | excellent inhibitory ability | CC12CC(NC(=O)N1c1cccc(C(=O)N3CCc4ccccc4C3)c1)c1cc(-c3cccs3)ccc1O2 (stereo not drawn) [Compound 26c, 2-Methyl-3-(3-(1,2,3,4-tetrahydroisoquinoline-2-carbonyl)phenyl)-8-(thiophen-2-yl)-5,6-dihydro-2H-2,6-methanobenzo[g][1,3,5]oxadiazocin-4(3H)-one] | – |
| > 10 µM | excellent inhibitory ability | CC12CC(NC(=O)N1c1cccc(C(=O)N3CCc4ccccc4C3)c1)c1cc(-c3ccco3)ccc1O2 (stereo not drawn) [Compound 26d, 8-(furan-2-yl)-2-methyl-3-(3-(1,2,3,4-tetrahydroisoquinoline-2-carbonyl)phenyl)-5,6-dihydro-2H-2,6-methanobenzo[g][1,3,5]oxadiazocin-4(3H)-one] | – |
| > 10 µM | excellent inhibitory ability | COc1ccc(-c2ccc3c(c2)C2CC(C)(O3)N(c3cccc(C(=O)N4CCc5ccccc5C4)c3)C(=O)N2)cc1 (stereo not drawn) [Compound 26e, 8-(4-Methoxyphenyl)-2-methyl-3-(3-(1,2,3,4-tetrahydroisoquinoline-2-carbonyl)phenyl)-5,6-dihydro-2H-2,6-methanobenzo[g][1,3,5]oxadiazocin-4(3H)-one] | – |
| 1 to 10 µM | – | CC12CC(NC(=O)N1c1cccc(C(=O)N3CCc4ccccc4C3)c1)c1cc(N3CCOCC3)ccc1O2 (stereo not drawn) [Compound 26f, 2-Methyl-8-morpholino-3-(3-(1,2,3,4-tetrahydroisoquinoline-2-carbonyl)phenyl)-5,6-dihydro-2H-2,6-methanobenzo[g][1,3,5]oxadiazocin-4(3H)-one] | – |
| 1 to 10 µM | – | CC12CC(NC(=O)N1c1cccc(C(=O)N3CCc4ccccc4C3)c1)c1cccc(-c3ccsc3)c1O2 (stereo not drawn) [Compound 26g, 2-Methyl-3-(3-(1,2,3,4-tetrahydroisoquinoline-2-carbonyl)phenyl)-10-(thiophen-3-yl)-5,6-dihydro-2H-2,6-methanobenzo[g][1,3,5]oxadiazocin-4(3H)-one] | – |
| 1 to 10 µM | – | CC12CC(NC(=O)N1c1cccc(C(=O)N3CCc4ccccc4C3)c1)c1cccc(-c3ccoc3)c1O2 (stereo not drawn) [Compound 26h, 10-(Furan-3-yl)-2-methyl-3-(3-(1,2,3,4-tetrahydroisoquinoline-2-carbonyl)phenyl)-5,6-dihydro-2H-2,6-methanobenzo[g][1,3,5]oxadiazocin-4(3H)-one] | – |
| 1 to 10 µM | – | CC12CC(NC(=O)N1c1cccc(C(=O)N3CCc4ccccc4C3)c1)c1ccc(-c3ccsc3)cc1O2 (stereo not drawn) [Compound 26i, 2-Methyl-3-(3-(1,2,3,4-tetrahydroisoquinoline-2-carbonyl)phenyl)-9-(thiophen-3-yl)-5,6-dihydro-2H-2,6-methanobenzo[g][1,3,5]oxadiazocin-4(3H)-one] | – |
| 1 to 10 µM | – | CC12CC(NC(=O)N1c1cccc(C(=O)N3CCc4ccccc4C3)c1)c1ccc(-c3ccoc3)cc1O2 (stereo not drawn) [Compound 26j, 9-(Furan-3-yl)-2-methyl-3-(3-(1,2,3,4-tetrahydroisoquinoline-2-carbonyl)phenyl)-5,6-dihydro-2H-2,6-methanobenzo[g][1,3,5]oxadiazocin-4(3H)-one] | – |
| 1 to 10 µM | – | CC12CC(NC(=O)N1c1cccc(C(=O)N3CCc4ccc(F)cc4C3)c1)c1cc(Br)ccc1O2 (stereo not drawn) [Compound 27a, 8-Bromo-3-(3-(7-fluoro-1,2,3,4-tetrahydroisoquinoline-2-carbonyl)phenyl)-2-methyl-5,6-dihydro-2H-2,6-methanobenzo[g][1,3,5]oxadiazocin-4(3H)-one] | – |
| 1 to 10 µM | – | CC12CC(NC(=O)N1c1cccc(C(=O)N3CCc4cc(F)ccc4C3)c1)c1cc(Br)ccc1O2 (stereo not drawn) [Compound 27b, 8-Bromo-3-(3-(6-fluoro-1,2,3,4-tetrahydroisoquinoline-2-carbonyl)phenyl)-2-methyl-5,6-dihydro-2H-2,6-methanobenzo[g][1,3,5]oxadiazocin-4(3H)-one] | – |
| > 10 µM | – | CC12CC(NC(=O)N1c1cccc(C(=O)N3CCc4cccc(F)c4C3)c1)c1cc(Br)ccc1O2 (stereo not drawn) [Compound 27c, 8-Bromo-3-(3-(8-fluoro-1,2,3,4-tetrahydroisoquinoline-2-carbonyl)phenyl)-2-methyl-5,6-dihydro-2H-2,6-methanobenzo[g][1,3,5]oxadiazocin-4(3H)-one] | – |
